The text below walks through data of patent US20240262817A1, “QUINAZOLINE DERIVATIVES TARGETING R(CCUG) REPEATS IN MYOTONIC DYSTROPHY TYPE 2” (University of Florida Research Foundation, Incorporated, priority 2021, published 2024).

Assay [1] concerns CNBP intron 1 in wild-type fibroblasts. Kind of assay: CNBP intron 1 levels via RT-qPCR in wild-type fibroblasts. Type of assay: cell-based. As to the method: (§1) Cell lines and cell culture: Compounds were tested in two cell lines: (i) DM2 patient-derived fibroblasts (generous gift from University of Florida, Center for NeuroGenetics) and (ii) fibroblasts from a healthy donor (wild-type; WT GM07492; Coriell Institute). Cells were maintained at 37° ° C. with 5% CO2. DM2 fibroblasts were cultured in DMEM/high glucose (HyClone) supplemented with 20% FBS (Sigma) and 1% Antibiotic-Antimycotic solution (Corning). Wild-type fibroblasts were cultured in MEM (Corning) supplemented with 10% FBS, 1% Glutagro (Corning), and 1% Antibiotic-Antimycotic solution.
(§2) Evaluation of CNBP abundance via RT-qPCR: CNBP abundance was evaluated as previously described.^10 Briefly, cells were grown in 6-well plates and treated with the desired compound in growth medium at 40% confluency. […] Approximately 1 μg of total RNA was reverse transcribed using a qScript cDNA synthesis kit (20 μL total reaction volume, Quanta BioSciences); 2 μL of the reverse transcription (RT) reaction was used for each primer pair (Table S1) for quantitative PCR with SYBR Green Master Mix, performed on a QuantStudio 5, 384-well Block Real-Time PCR System (Applied Biosciences). Relative abundance was determined by normalizing to GAPDH (n=6 replicates per concentration; 2 independent experiments).

For assay [2], the system named is r(CCUG)exp-MBNL1 nuclear foci in DM2 patient-derived fibroblasts. The assay is described as follows: Nuclear foci by RNA FISH and MBNL1 immunofluorescence. Type of assay: cell-based. On the set-up: dose or concentration left out as unconfirmed. As to the method: as §1
Evaluation of nuclear foci via RNA fluorescence in situ hybridization (FISH): RNA FISH was used to determine the small molecules' effects on the number of nuclear foci as previously described.^10 The number of foci were counted in 40 nuclei/replicate (120 total nuclei counted); n=3 replicates; 1 independent experiment.

Another assay addresses r(CCUG)12. Kind of assay: Microscale thermophoresis (MST) affinity for r(CCUG)12. The conditions noted are these: read-out: Kd,app for r(CCUG)12. Type of assay: binding. The method, then:
(§3) Affinity measurements: Binding affinity measurements were performed via microscale thermophoresis (MST) on a Monolith NT.115 system (NanoTemperTechnologies) with Cy5-labeled (CCUG)12 (SEQ ID NO: 15) (5′-Cy5-GCG(CCUG)12CGC. SEQ ID NO:13; Dharmacon) and Cy5-labeled base pair control (BP; 5′-Cy5-GCG(CCUG)(GCAG)5CGC, SEQ ID NO:14; Dharmacon), which were deprotected according to the manufacturer's protocol and then desalted using a PD-10 column (GE LifeSciences) per the manufacturer's recommended procedure. RNA (5 nM) was prepared in 8 mM Na2HPO4, 185 mM NaCl, 1 mM EDTA and folded by heating at 60° C. for 5 min and slowly cooling to room temperature. Compound 1:1 dilution was prepared using 1×MST Buffer (8 mM Na2HPO4, 185 mM NaCl, 1 mM EDTA) and 0.1% (v/v) Tween-20 was added. After cooling the RNA solution was added to the compound solution (0.05% (v/v) Tween-20 final concentration). Samples were incubated for 30 min at room temperature and then loaded into standard capillaries (NanoTemper Technologies). […] Fluorescence was detected using excitation wavelengths of 605-645 nm and emission wavelengths of 680-685 nm. The resulting data were analyzed by thermophoresis analysis and fitted using a quadratic binding equation in the MST analysis software (NanoTemper Technologies). Dissociation constants were then determined using equation 3. […]

In assay [3] the test system is IR exon 11 inclusion in wild-type fibroblasts. The assay is described as follows: IR exon 11 inclusion via RT-PCR in wild-type fibroblasts. It counts as cell-based. As to the method: as §1
(§4) Evaluation of pre-mRNA splicing via RT-PCR: Pre-mRNA splicing was analyzed as previously described.^10 Briefly, cells were grown in 6-well plates and treated with the desired compound in growth medium at ˜40% confluency. After 48 h, the cells were lysed, and total RNA was harvested using a Zymo Quick RNA Miniprep Kit. Approximately 1 μg of total RNA was reverse transcribed using a qScript cDNA synthesis kit (20 μL of total reaction volume, Quanta BioSciences); 2 μL of the RT reaction was used for PCR using GoTaq DNA polymerase (Promega). […] Gels were quantified using ImageJ. Percent rescue was calculated by dividing the difference between treated and untreated DM2 samples by the difference between untreated DM2 and WT samples (Equation 2).

Assay [4] concerns the target base-paired RNA that does not contain internal loops. Kind of assay: Microscale thermophoresis (MST) affinity for base pair control RNA. It counts as binding. The method, then: as §3
The subject of assay [5] is IR exon 11 alternative splicing in DM2 patient-derived fibroblasts. The assay is described as follows: Rescue of IR exon 11 splicing via RT-PCR in DM2 fibroblasts. Type of assay: cell-based. The method, then:
as §1
Evaluation of pre-mRNA splicing via RT-PCR: Pre-mRNA splicing was analyzed as previously described.^10 Briefly, cells were grown in 6-well plates and treated with the desired compound in growth medium at ˜40% confluency. After 48 h, the cells were lysed, and total RNA was harvested using a Zymo Quick RNA Miniprep Kit. Approximately 1 μg of total RNA was reverse transcribed using a qScript cDNA synthesis kit (20 μL of total reaction volume, Quanta BioSciences); 2 μL of the RT reaction was used for PCR using GoTaq DNA polymerase (Promega). RT-PCR products were observed after 35 cycles of 95° C. for 30 s, 58° C. for 30s, 72 °C for 1 min, and a final extension at 72° C. for 5 min. Products were separated on a 2% agarose gel (110 V for 1 h in 13TBE buffer), visualized by staining with ethidium bromide, and imaged using a Typhoon 9410 variable mode imager. Gels were quantified using ImageJ. Percent rescue was calculated by dividing the difference between treated and untreated DM2 samples by the difference between untreated DM2 and WT samples (Equation 2).

Assay [6] concerns MAP4K4 exon 22a splicing (NOVA-dependent) in DM2 fibroblasts. The assay is described as follows: MAP4K4 exon 22a splicing via RT-PCR in DM2 fibroblasts. It counts as cell-based. The method, then: as §1, §4
For assay [7], the system named is CNBP mature mRNA in DM2 patient-derived fibroblasts. The assay is described as follows: CNBP mature mRNA levels via RT-qPCR in DM2 fibroblasts. It counts as cell-based. As to the method: as §1, §2
(Real-time PCR tracks product formation cycle by cycle.)

Assay [8] relates to CNBP intron 1 in DM2 patient-derived fibroblasts. The assay is described as follows: CNBP intron 1 abundance via RT-qPCR in DM2 fibroblasts. Type of assay: cell-based. On the set-up: dose or concentration left out as unconfirmed. The method, then: as §1, §2

Entries after “also recorded” stand apart in the source; their conditions may differ.

As for `Cc1ccc2nc(Nc3ccc4nc(C)sc4c3)nc(NCCCO)c2c1` [Compound 63, 3-((6-methyl-2-((2-methylbenzo[d]thiazol-6-yl)amino)quinazolin-4-yl)amino)propan-1-ol], in assay [1], the “effect on CNBP intron 1 levels” value was “no effect”. In assay [2] (63 vs untreated), the “reduction of number of nuclear foci per cell” value was around 30%. In assay [2] (untreated 7±1), the “number of r(CCUG)exp-MBNL1 nuclear foci per cell” value is 5±0.5. Moreover, the Kd on r(CCUG)12 was 192 ± 20 nM; in assay [4], above 20000 nM. Also, the “effect on IR exon 11 inclusion” value in [3] is recorded as “did not affect; also recorded: no effect”. Besides, the “binding to base-paired RNA that does not contain internal loops” value in assay [4] was “no binding was observed”. Besides, in assay [5] (at 1 μM), the “rescue of IR exon 11 splicing” value was around 30%. Also, the “rescue of IR splicing” value in assay [5] (at 1 μM dose, p=0.026) worked out at 33±5. The “improvement of IR splicing” value in [5] (at 5 μM) is recorded as “significantly improved IR splicing”. The “effect on MAP4K4 exon 22a splicing” value in assay [6] is “did not affect; also recorded: does not affect”. The “levels of CNBP mature mRNA” value in assay [7] is reported as “did not affect”. Further, the “abundance of CNBP intron 1” value in assay [8] was “significantly reduced”.
